Reference: patent publication US20260008801A1, “BIO-BASED SURFACTANTS DERIVED FROM CARBOHYDRATES” (COÖPERATIE KONINKLIJKE COSUN U.A., priority 2022, published 2026)

Key:
[1] = system: activated sludge from a municipal wastewater treatment plant (WWTP); assay: Biodegradability, OECD 301A DOC Die-Away Test (adjusted); settings: inoculum with compound and sodium acetate
Procedure: Biodegradability of compounds was assessed. The compound is added to an inoculate of activated sludge from a municipal wastewater treatment plant (WWTP). The experiment relies on the basic principles of the 301A DOC Die-Away Test described in the OECD guidelines for readily biodegradable substances. A small adjustment was made where the measuring is not done in conical flasks but, instead, in serum vials closed with butylrubber stoppers. This allowed measurement of the evolution of CO2 and O2 over time. In general, the experiment involves the experimental incubation (inoculum and compound), along with a blank control (inoculum no compound), a positive control (inoculum and sodium acetate), and controls for abiotic degradation (compound in medium), adsorption (compound with sterilized inoculum), and toxicity (inoculum with compound and sodium acetate).
The fresh sludge was conditioned overnight by bubbling with air at room temperature. […]
Incubations were prepared containing approximately 70 mg/L surfactant and 3 ml sludge in a final volume of 30 ml mineral medium in a borosilicate serum vial crimp-sealed with a butyl rubber stopper. […] 1 ml samples were taken weekly for surfactant quantification and centrifuged 5 min at 20.000×g. […] CO2 was analyzed by measuring headspace gas on an Agilent 8890A/5977B GC-MS equipped with an Agilent 6 FT Porapak Q 80/10 column. […]

[2] = system: Zein; assay: Zein solubilisation (skin irritation potential); settings: pH 7; SDS set as 100
Procedure: Zein solubilisation was measured to determine the irritation of the surfactants. Zein is a simple protein found in corn. It is a very simple mimic of skin protein, the more solubilised by your material the harsher the potential to irritate and dry the skin. This method is a quick screen and provides indicative data. The procedure is 1) Weight 2-2.5 ml Eppendorf's on a 4 dp balance. 2) Weight out as accurately as possible 70 mg of Zein. 3) Add to the Eppendorf and reweigh. 4) Make your surfactant dilutions. 5) Add 1 ml of the surfactant dilution to the Eppendorf. 6) Place this on a rotary mixer for 20 mins at 20 rpm at RT. 7) Remove and centrifuge for 4 mins at highest speed available on a micro centrifuge 8) Discard the supernatant making sure as much of it possible is removed. 9) Repeat with water, centrifuge and discard supernatant. 10) With the Eppendorf lid open, place at 50° C. overnight to dry (48 hours required). 11) Re-weigh the next day. 12) Calculate the amount of Zein solubilised. The obtained data allows comparison of surfactants and their harshness to skin. Decisions for in vivo testing can be based on good Zein results.
The skin irritation potential of the surfactants was investigated using zein solubilisation, which is a commonly known assay. Zein is a very simple mimic of skin protein. The more zein is solubilized by the surfactant the harsher the potential to irritate and dry the human skin. […] The surfactants were measured at different pH values, a pH of 4-5, 7 and at their original pH as is.

[3] = Surface tension measurements, Wilhelmy plate (surface tension, CMC); assay type: physicochemical
Procedure: Surface tension measurements were performed with a Biolin Scientific Sigma701 automatic tension meter equipped with a Wilhelmy plate made of platinum (±0.5 mN/m). […] The number of experimental points is related to the compound's/surfactant's solubility and available quantity. All compound/surfactant solutions were allowed to stand 12 h before being measured. The platinum plate was thoroughly cleaned with demi water and flame-dried before each measurement. The CMC of each compound/surfactant was determined at the minimum of a breakpoint of a conventional plot of surface tension versus compound/surfactant concentration. DCMC was obtained by acquiring the surface tension at the CMC. The pC20 value was determined by taking the minus log of the concentration compound/surfactant at a surface tension of 52 mN/m.

[4] = Foaming power and stability, Ultra-Turrax, 0.4% aq. surfactant; assay type: physicochemical; settings: Table E5.2
Procedure: Foaming power was also tested at room temperature with 5 mL of 0.4% aq. surfactant (20 mg) solution in a 50 mL measuring cylinder. After performing the Ultra-Turrax (a registered trademark for a high-performance dispersing instrument) for 20 seconds (8000 rpm), the initial height of the foam was measured for foam height. (volume in mL). Every time step of, 1, 3, 5, 10, 30, 60 minutes was noted. In addition, after 24 hours the stability was checked. Particularly, foaming power and stability of the surfactants were performed using an IKA Ultra-Turrax T25 with an 18 G dispersing element. At room temperature, an aqueous solution of 5 mL 0.4% surfactant in a 50 mL measuring cylinder (2.20 cm diameter) was mixed with the Ultra-Turrax for 20 seconds at 8000 rpm. The foam height (volume in mL) was denoted for 0, 1, 3, 5, 10, 30, 60 min and 24 hours. In addition, after 24 hours the stability was checked.

[5] = Solubility in water (excess of compound in 4 ml demi water); assay type: physicochemical
Procedure: Solubility is preferably solubility in aqueous solution, more preferably solubility in water, most preferably solubility in demineralised water. A skilled person knows how to assess such solubility.
Solubility in water was determined by preparing mixtures of an excess of compound dispersed in 4 ml demi water using a vortex at maximum speed for 1 min. […] 1 ml of the mixture was concentrated in vacuo to yield a solid. The mass of the solid was determined in mg to calculate the solubility in percentage by dividing by ten.

[6] = Foaming abilities, 1% compound solutions shaken by hand; assay type: physicochemical; set-up: key to FOAM: −: no foam formation; +: low foam formation; ++: moderate foam formation; +++: strong foam formation; settings: Table E5; pH > 7.3
Procedure: Foaming abilities were evaluated at room temperature by shaking 1% compound solutions (2 ml) of pH 3, 7, and 12 by hand for 10 s. The pH of each solution was assessed with a pH meter at room temperature. […] The foam heights at the initial time were compared to one another after which the foaming abilities were classified according to no foam formation (−), low foam formation (+), moderate foam formation (++), and strong foam formation (+++).

CCCCCCCCN(C)C[C@H](O)[C@@H](O)[C@@H](O)[C@H](O)C(=O)O [Compound 31, N-methyl-N-octyl-D-galacturonic acid amine]
inhibition of breakdown of acetate (toxicity control) [1]: did not inhibit | zein score / skin irritation potential value [2]: 1 | CMC (%) ([3]; Table E5): 1.15% | SURFACE TENSION ([3]; Table E5, room temperature, pH 7): 32.067 mN/m | CMC (%) ([3]; Table E5.2): 1.15% | Surface tension (nM/m) ([3]; Table E5.2): 32.1 mN/m | SURFACE TENSION ([3]; running text b302): 31.5 mN/m | Foamability (mL) after (min) 1 ([4]; foam volume after 1 min): 4.5 mL | Foamability (mL) after (min) 5 ([4]; foam volume after 5 min): 4 mL | Foamability (mL) after (min) 10 ([4]; foam volume after 10 min): 4 mL | solubility in H2O [5]: 15% | SOLUBILITY (H2O) ([5]; Table E5): 15% | Solubility ([5]; Table E5.2, water): 15% | FOAM [6]: ++
